Assay [1] has as its system guinea pig. Kind of assay: Local anesthetic properties, intradermal wheal method in guinea pigs, intradermal injection (Table 2). Type of assay: in vivo. Particulars: 2% w/w, n = 6. The procedure:
Intra Dermal Wheal Method in Guinea Pigs:
The hairs on the back of guinea pigs were shaved. The normal response of the animal with a pinprick on both sides of the back was tested with 0.2 ml of the herbal formulations were injected intradermally on the left side and 0.2 ml of a normal saline (0.9%) was injected on the right side of the back. The sides were demarcated by ink. Six pinpricks were applied at interval of 2 to 3 s. Pinpricks were repeated after every 5 min. Animals showing no squeak response to all the six pinpricks were considered positive to anaesthetic effect.

The test system of assay [2] is guinea pig. As to the kind of experiment: Local anesthetic properties, guinea pig wheal method, topical application (Table 1). Type of assay: in vivo. Further details: key: a positive (+) response is recorded, showing no anesthetic activity; loss in sensation (−). Particulars: 2% w/w, n = 6.

`CCN(CC)CC(=O)Nc1c(C)cccc1C` [Lignocaine]: the “Response at 0 minutes after intradermal injection” value in assay [1] (0 min) is listed as “+”. Further, in assay [1] (5 min), the “Response at 5 minutes after intradermal injection” value is “−”. For the same compound, the “Response at 10 minutes after intradermal injection” value in assay [1] (10 min) was “−”. The “Response at 15 minutes after intradermal injection” value in assay [1] (15 min) was “−”. In addition, in assay [1] (20 min), the “Response at 20 minutes after intradermal injection” value was “−”. The “Response at 30 minutes after intradermal injection” value in assay [1] (30 min) is “−”. Besides, the “Response at 45 minutes after intradermal injection” value in assay [1] (45 min) is reported as “−”. Moreover, the “Response at 60 minutes after intradermal injection” value in assay [1] (60 min) is given as “−”. In assay [2] (0 min), the “Response at 0 minutes after topical application” value is “+”. Also, the “Response at 5 minutes after topical application” value in assay [2] (5 min) was “+”. For the same compound, in assay [2] (10 min), the “Response at 10 minutes after topical application” value is recorded as “−”. The “Response at 15 minutes after topical application” value in assay [2] (15 min) is given as “−”. Moreover, in assay [2] (20 min), the “Response at 20 minutes after topical application” value is reported as “−”. In assay [2] (30 min), the “Response at 30 minutes after topical application” value is “−”. In addition, the “Response at 45 minutes after topical application” value in assay [2] (45 min) is “−”. The “Response at 60 minutes after topical application” value in assay [2] (60 min) was “−”. Further, the “Response at 120 minutes after topical application” value in assay [2] (120 min) was “−”.

The values above are taken from US20060141064A1, “Herbal formulation useful as local anesthetic” (priority 2004, published 2006).
